Experimental data reported in patent EP4603105A1, “PHARMACEUTICAL COMPOSITION CONTAINING CYCLIC COMPOUND HAVING SELECTIVE KRAS INHIBITORY EFFECT AGAINST HRAS AND NRAS” (CHUGAI SEIYAKU KABUSHIKI KAISHA, priority 2022, dated 2024).
*1 amine or outer side, *2 acyl side, *3 side chain or, on linkers, in order; H or OH if unused. Where a SMILES comes first, the peptide text is derived from it. Bridges are numbered along the chain shown (N, C = ends). [ ]: non-standard residue; d: D form. The star is where a group is joined. hPhe(3-Cl-4-CF3) = N[C@@H](CCc1ccc(C(F)(F)F)c(Cl)c1)C(=O)O; NPrPhe(4-CF3) = CCCN[C@@H](Cc1ccc(C(F)(F)F)cc1)C(=O)O; NEtAsp = CCN([C@@H](CC(=O)[*:3])C(=O)[*:2])[*:1]; NMeGly(cPent) = CN[C@H](C(=O)O)C1CCCC1; Pro(4,4-F2) = O=C(O)[C@@H]1CC(F)(F)CN1; NMeD = CN[C@@H](CC(=O)O)C(=O)O; NMeL = CN[C@@H](CC(C)C)C(=O)O; Morpholide = C1CN(*)CCO1; Ac5c = NC1(C(=O)O)CCCC1; Aze = O=C(O)[C@@H]1CCN1; Ac4c = NC1(C(=O)O)CCC1; Sar = CNCC(=O)O

What was measured:
[1] = system: human lung cancer strain NCI-H441; format: cell-based
In short: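 Proliferation was scored by […] measured after the reagent was added to cultures kept at 37°C in 5% carbon dioxide.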

HRAS wild-type protein = HRAS wild-type protein (Homo sapiens, UniProt P01112); experiment: Binding to HRAS by surface plasmon resonance (SPR), KD and KD ratio to KRAS
HRAS wild-type protein, sequence (P01112 whole entry): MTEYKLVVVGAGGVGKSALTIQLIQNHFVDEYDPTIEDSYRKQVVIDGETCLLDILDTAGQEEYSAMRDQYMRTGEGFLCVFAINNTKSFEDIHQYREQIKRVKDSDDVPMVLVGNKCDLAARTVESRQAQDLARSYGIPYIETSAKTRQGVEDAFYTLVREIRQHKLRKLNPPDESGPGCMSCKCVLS
In short: (§1)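 Single-cycle kinetics on GDP-loaded biotin-Avi RAS captured to ~100–300 RU; 75 s ascending injections, 100 µL/min, 30°C. HBS pH 7.4 + 10 mM MgCl2/10 µM GDP/4% DMSO. 1:1 fit, KD.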

[2] = target: GDP-bound NRAS wild-type protein (Homo sapiens, UniProt P01111); experiment: Binding to NRAS by surface plasmon resonance (SPR), KD and KD ratio to KRAS
GDP-bound NRAS wild-type protein, sequence (P01111 whole entry): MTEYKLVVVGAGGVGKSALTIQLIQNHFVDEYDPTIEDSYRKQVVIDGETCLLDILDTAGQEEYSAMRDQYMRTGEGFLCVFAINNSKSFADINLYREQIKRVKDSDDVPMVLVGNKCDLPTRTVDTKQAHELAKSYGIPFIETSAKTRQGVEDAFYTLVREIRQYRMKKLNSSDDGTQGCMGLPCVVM
In short: as §1

[3] = ratio of the KD value with respect to HRAS wild-type protein to the KD value with respect to KRAS
[4] = ratio of the KD value with respect to GDP-bound NRAS wild-type protein to the KD value with respect to KRAS
[5] = ratio of KD for HRAS wild-type protein to KD for KRAS
[6] = ratio of KD for GDP-bound NRAS wild-type protein to KD for KRAS
[7] = ratio of KD value for HRAS wild-type protein to KD value for KRAS (SPR)
[8] = ratio of KD value for GDP-bound NRAS wild-type protein to KD value for KRAS (SPR)

Row | IC50 [1] | Structure (SMILES) | HRAS /KRAS (HRAS wild-type protein; [3]) | NRAS /KRAS [2, 4] | HRAS /KRAS (HRAS wild-type protein; [5]) | NRAS /KRAS [2, 6] | other results
1 | 2.2 nM | CCCN1C(=O)CN(C)C(=O)CN(C)C(=O)[C@H]([C@@H](C)CC)NC(=O)[C@H](CC(C)C)N(C)C(=O)C[C@@H](C(=O)N(C)C)N(CC)C(=O)[C@H](C2CCCC2)N(C)C(=O)C2(CCC2)NC(=O)[C@@H]2CCCN2C(=O)[C@H](CCc2ccc(C(F)(F)F)c(Cl)c2)NC(=O)CN(C)C(=O)[C@@H]1Cc1ccc(C(F)(F)F)cc1 [PP1956] ([NMeL]I[Sar][Sar][NPrPhe(4-CF3)][Sar][hPhe(3-Cl-4-CF3)]P[Ac4c][NMeGly(cPent)][NEtAsp]-NMe2; lactam N-11) | B (a compound having 3 or more and less than 10 is denoted as B) | B (a compound having 3 or more and less than 10 is denoted as B) | – | – | –
2 | 158 nM | CCCN1C(=O)CN(C)C(=O)[C@@H]2CCN2C(=O)[C@H]([C@@H](C)CC)NC(=O)[C@H](CC(C)C)N(C)C(=O)C[C@@H](C(=O)N2CCOCC2)NC(=O)[C@H](C2CCCC2)N(C)C(=O)C2(CCCC2)NC(=O)[C@@H]2CC(F)(F)CN2C(=O)[C@H](CCc2ccc(C(F)(F)F)c(Cl)c2)NC(=O)CN(C)C(=O)[C@@H]1Cc1ccc(C(F)(F)F)cc1 [PP0339] ([NMeL]I[Aze][Sar][NPrPhe(4-CF3)][Sar][hPhe(3-Cl-4-CF3)][Pro(4,4-F2)][Ac5c][NMeGly(cPent)]D-Morpholide; lactam N-11) | – | – | B (a compound having 3 or more and less than 10 is denoted as B) | B (a compound having 3 or more and less than 10 is denoted as B) | –
3 | 8.7 nM | CCCN1C(=O)CN(C)C(=O)CN(C)C(=O)[C@H]([C@@H](C)CC)NC(=O)[C@H](CC(C)C)N(C)C(=O)C[C@@H](C(=O)N2CCOCC2)N(CC)C(=O)[C@H](C2CCCC2)N(C)C(=O)C2(CCC2)NC(=O)[C@@H]2CCCN2C(=O)[C@H](CCc2ccc(C(F)(F)F)c(Cl)c2)NC(=O)CN(C)C(=O)[C@@H]1Cc1ccc(C(F)(F)F)cc1 [PP1953] ([NMeL]I[Sar][Sar][NPrPhe(4-CF3)][Sar][hPhe(3-Cl-4-CF3)]P[Ac4c][NMeGly(cPent)][NEtAsp]-Morpholide; lactam N-11) | B (a compound having 3 or more and less than 10 is denoted as B) | B (a compound having 3 or more and less than 10 is denoted as B) | – | – | –
4 | 3.6 nM | CCCN1C(=O)CN(C)C(=O)CN(C)C(=O)[C@H]([C@@H](C)CC)NC(=O)[C@H](CC(C)C)N(C)C(=O)C[C@@H](C(=O)N2CCOCC2)N(C)C(=O)[C@H](C2CCCC2)N(C)C(=O)C2(CCC2)NC(=O)[C@@H]2CCCN2C(=O)[C@H](CCc2ccc(C(F)(F)F)c(Cl)c2)NC(=O)CN(C)C(=O)[C@@H]1Cc1ccc(C(F)(F)F)cc1 [PP0197] ([NMeL]I[Sar][Sar][NPrPhe(4-CF3)][Sar][hPhe(3-Cl-4-CF3)]P[Ac4c][NMeGly(cPent)][NMeD]-Morpholide; lactam N-11) | – | – | C (A compound having a KD ratio of 0.1 or more and less than 3 is denoted as C) | B (a compound having 3 or more and less than 10 is denoted as B) | –
5 | 7.8 nM | CCO[C@@H]1C[C@H]2C(=O)NC3(CCCC3)C(=O)N(C)[C@@H](C3CCCC3)C(=O)N(C)[C@H](C(=O)N(C)C)CC(=O)N(C)[C@@H](CC(C)C)C(=O)N[C@@H]([C@@H](C)CC)C(=O)N(C)CC(=O)N(C)[C@H]3C/C=C\CCN(C3=O)[C@@H](Cc3ccc(C)cc3)C(=O)N(C)CC(=O)N[C@@H](CCc3ccc(C(F)(F)F)c(Cl)c3)C(=O)N2C1 [PP2195] | A (a compound having 10 or more and less than 20 is denoted as A) | A (a compound having 10 or more and less than 20 is denoted as A) | – | – | –
6 | 27.2 nM | CCO[C@@H]1CCN2C(=O)[C@H](CCc3cc(F)c(C(F)(F)F)c(F)c3)NC(=O)CN(C)C(=O)[C@H](Cc3ccc(C(F)(F)F)cc3)N3CCCC[C@@H](C3=O)N(C)C(=O)CN(C)C(=O)[C@H]([C@@H](C)CC)NC(=O)[C@H](CC(C)C)N(C)C(=O)C[C@@H](C(=O)N3CCOCC3)N(C)C(=O)[C@H](C3CCCC3)N(C)C(=O)C3(CCC3)NC(=O)[C@H]12 [PP1079] | – | – | B (a compound having 3 or more and less than 10 is denoted as B) | B (a compound having 3 or more and less than 10 is denoted as B) | –
7 | 7.4 nM | CC[C@H](C)[C@@H]1NC(=O)[C@H](C)N(C)C(=O)C[C@@H](C(=O)N(C)C)N(C)C(=O)[C@H](C2CCCC2)N(C)C(=O)C2(CC(C)(C)C2)NC(=O)[C@@H]2CC(F)(F)CN2C(=O)[C@H](CCc2cc(F)c(C(F)(F)F)c(F)c2)NC(=O)CN(C)C(=O)[C@H](Cc2ccc(C(F)(F)F)cc2)N2CC/C=C\C[C@@H](C2=O)N(C)C(=O)CN(C)C1=O [PP1707] | – | – | – | – | HRAS /KRAS (HRAS wild-type protein; [7]): A (a compound having 10 or more and less than 20 is denoted as A); NRAS /KRAS [2, 8]: AA (a compound having 20 or more is denoted as AA)
8 | 30.4 nM | CCO[C@@H]1C[C@H]2C(=O)NC3(CC(C)(C)C3)C(=O)N(C)[C@@H](C3CCCC3)C(=O)N(C)[C@H](C(=O)N(C)CC)CC(=O)N(C)[C@@H]([C@@H](C)OC)C(=O)N[C@@H]([C@@H](C)CC)C(=O)N(C3CC3)CC(=O)N(C)[C@H]3C/C=C\CCN(C3=O)[C@@H](Cc3ccc(C)cc3)C(=O)N(C)CC(=O)N[C@@H](CCc3cc(F)c(C(F)(F)F)c(F)c3)C(=O)N2C1 [PP3184] | – | – | A (a compound having 10 or more and less than 20 is denoted as A) | A (a compound having 10 or more and less than 20 is denoted as A) | –
9 | 50.4 nM | CCCO[C@@H]1C[C@H]2C(=O)NC3(CCC3)C(=O)N(C)[C@@H](C3CCCC3)C(=O)N(C)[C@H](C(=O)N3CCOCC3)CC(=O)N(C)[C@@H](COC)C(=O)N[C@@H]([C@@H](C)CC)C(=O)N(C)CC(=O)N(C)[C@H]3CCCCCN(C3=O)[C@@H](Cc3ccc(C(F)(F)F)cc3)C(=O)N(C)CC(=O)N[C@@H](CCc3cc(F)c(C(F)(F)F)c(F)c3)C(=O)N2C1 [PP0838] | – | – | B (a compound having 3 or more and less than 10 is denoted as B) | B (a compound having 3 or more and less than 10 is denoted as B) | –
10 | 0.8 nM | CCCN1C(=O)CN(C)C(=O)CNC(=O)[C@H]([C@@H](C)CC)NC(=O)[C@H](CC(C)C)N(C)C(=O)C[C@@H](C(=O)N2CCOCC2)N(C)C(=O)[C@H](C2CCCC2)N(C)C(=O)C2(CCC2)NC(=O)[C@@H]2CC(F)(F)CN2C(=O)[C@H](CCc2ccc(C(F)(F)F)c(Cl)c2)NC(=O)CN(C)C(=O)[C@@H]1Cc1ccc(C(F)(F)F)cc1 [PP0395] ([NMeL]IG[Sar][NPrPhe(4-CF3)][Sar][hPhe(3-Cl-4-CF3)][Pro(4,4-F2)][Ac4c][NMeGly(cPent)][NMeD]-Morpholide; lactam N-11) | C (A compound having a KD ratio of 0.1 or more and less than 3 is denoted as C) | B (a compound having 3 or more and less than 10 is denoted as B) | – | – | –
11 | 13.7 nM | CCO[C@@H]1C[C@H]2C(=O)NC3(CCC3)C(=O)N(C)[C@@H](C3CCCC3)C(=O)N(C)[C@H](C(=O)N3CCOCC3)CC(=O)N(C)[C@@H](CCOC)C(=O)N[C@@H]([C@@H](C)CC)C(=O)N(C)CC(=O)N(C)[C@H]3CCCCN(C3=O)[C@@H](Cc3ccc(C(F)(F)F)cc3)C(=O)N(C)CC(=O)N[C@@H](CCc3cc(F)c(C(F)(F)F)c(F)c3)C(=O)N2C1 [PP0720] | B (a compound having 3 or more and less than 10 is denoted as B) | C (A compound having a KD ratio of 0.1 or more and less than 3 is denoted as C) | – | – | –
12 | 37 nM | CCC[C@H]1C(=O)N[C@@H](C(CC)CC)C(=O)N(C)CC(=O)N(C)[C@H]2C/C=C\CCN(C2=O)[C@@H](Cc2ccc(C)cc2)C(=O)N(C)CC(=O)N[C@@H](CCc2ccc(C(F)(F)F)c(Cl)c2)C(=O)N2C[C@H](OCC)C[C@H]2C(=O)NC2(CC(C)(C)C2)C(=O)N(C)[C@@H](C2CCCC2)C(=O)N(C)[C@H](C(=O)N(C)C)CC(=O)N1C [PP2209] | A (a compound having 10 or more and less than 20 is denoted as A) | A (a compound having 10 or more and less than 20 is denoted as A) | – | – | –
13 | 7.7 nM | CCO[C@@H]1C[C@H]2C(=O)NC3(CCC3)C(=O)N(C)[C@@H](C3CCCC3)C(=O)N(C)[C@H](C(=O)N(C)CCOC)CC(=O)N(C)[C@@H](CC(F)F)C(=O)N[C@@H]([C@@H](C)CC)C(=O)N(C)CC(=O)N(C)[C@H]3C/C=C\CCN(C3=O)[C@@H](Cc3ccc(C(F)(F)F)cc3)C(=O)N(C)CC(=O)N[C@@H](CCc3cc(F)c(C(F)(F)F)c(F)c3)C(=O)N2C1 [PP1320] | – | – | – | – | HRAS /KRAS (HRAS wild-type protein; ratio of KD with respect to HRAS wild-type protein to KD with respect to KRAS): A (a compound having 10 or more and less than 20 is denoted as A); NRAS /KRAS ([2]; ratio of KD with respect to GDP-bound NRAS wild-type protein to KD with respect to KRAS): A (a compound having 10 or more and less than 20 is denoted as A)
14 | 4.7 nM | CCO[C@@H]1C[C@H]2C(=O)NC3(CC(C)(C)C3)C(=O)N(C)[C@@H](C3CCCC3)C(=O)N(C)[C@H](C(=O)N(C)CC)CC(=O)N(C)[C@H]3CCCC/C=C/c4ccc(cc4)C[C@@H](C(=O)N(C)CC(=O)N[C@@H](CCc4ccc(C(F)(F)F)c(OC)c4)C(=O)N2C1)N1CC/C=C\C[C@@H](C1=O)N(C)C(=O)CN(C)C(=O)[C@H]([C@@H](C)CC)NC3=O [PP1830] | – | – | – | – | HRAS /KRAS (HRAS wild-type protein; [7]): B (a compound having 3 or more and less than 10 is denoted as B); NRAS /KRAS [2, 8]: A (a compound having 10 or more and less than 20 is denoted as A)
